Consider eight compounds from patent US20260049072A1, “HETEROCYCLIC COMPOUND FOR INDUCING DEGRADATION OF MUTANT KRAS PROTEIN” (Astellas Pharma Inc., priority 2022, published 2026).

For test [1], the target named is T1, RAS G12D (Homo sapiens, UniProt P01116, G12D).
T1 construct: host or cells: AsPC-1 human pancreatic cancer cells
Put plainly: RAS G12D degradation activity, Cell ELISA, AsPC-1. Type of test: cell-based. Particulars: AsPC-1 cells, 24 hours; read-out: DC50 (RAS G12D 50% degradation value). The method, then: Test Example 1-2: Evaluation of RAS G12D Degradation Activity on Human KRAS G12D Mutant-Positive Pancreatic Cancer Line AsPC-1
The RAS G12D degradation activities of subject compounds were evaluated in the same manner as in Test Example 1-1 by measuring the expression levels of RAS G12D by a Cell ELISA method.
AsPC-1 cells (ATCC, CRL-1682) were seeded at 36 μL per well on a 384-well plate to give 2.0×10^4 cells per well. As for the cell culture conditions, RPMI-1640 medium (from Sigma-Aldrich) containing 10% fetal bovine serum was used in the presence of 5% CO2 at 37° C.
The next day, the subject compounds (10 points having final concentrations in the range of 3 μM to 0.1 nM) and DMSO, which was the solvent for the subject compounds, as a negative control were diluted 100-fold with a fresh medium and were each added at 4 μL per well, followed by culturing for 24 hours.
The next day, the procedures from the immobilization of the cells to before the addition of the blocking solution were performed by the same methods as in Test Example 1-1. A blocking solution (Intercept Blocking Buffer; from LI-COR Biosciences) was added at 20 μL per well. After allowing the plate to stand for 30 minutes at room temperature, the supernatant was removed by centrifugation. A solution obtained by diluting an anti-R-actin antibody (1,000-fold dilution) with the blocking solution was added to the wells of the positive control as a primary antibody, and a solution obtained by diluting an anti-Ras (G12D Mutant Specific) antibody (Ras (G12D Mutant Specific) (D8H7) Rabbit mAb; from Cell Signaling Technology; 1,000-fold dilution) and an anti-3-actin antibody (1,000-fold dilution) with the blocking solution was added to the other wells as primary antibodies, each at 15 μL per well. The plate was allowed to stand overnight at 4° C.
The next day, the supernatant was removed by centrifugation, and the plate was washed with PBS. The supernatant was removed by centrifugation, and a solution obtained by diluting an anti-rabbit IgG antibody and an anti-mouse IgG antibody 1,000-fold with the blocking solution was added at 15 μL per well as secondary antibodies. After allowing the plate to stand at room temperature for an hour, the supernatant was removed by centrifugation, and the plate was washed with PBS. After removing the supernatant, the plate was dried as it was with air at room temperature for two hours or more, and the 700-nm and 800-nm fluorescent signals were measured with Aerius.
With the RAS G12D signaling value at the time of addition of DMSO corrected with the signaling value of β-actin taken as 0% and with the RAS G12D signaling value under the conditions of staining with the anti-β-actin antibody alone taken as 100%, the RAS G12D degradation rates were calculated. The 50% degradation values (DC50) were calculated by Sigmoid-Emax model nonlinear regression analysis.

Test [2] has as its target T2, RAS G12V (Homo sapiens, UniProt P01116, G12V).
T2 construct: host or cells: PA-TU-8902 human pancreatic cancer cells
Put plainly: RAS G12V degradation activity, Cell ELISA, PA-TU-8902. Type of test: cell-based. Particulars: PA-TU-8902 cells, 24 hours, 100% = Example compound 17 at 1 μM; read-out: DC50 (RAS G12V 50% degradation value). The method, then:
Test Example 1-1: Evaluation of RAS G12V Degradation Activity on Human KRAS G12V Mutant-Positive Pancreatic Cancer Line PA-TU-8902
The RAS G12V degradation activities of subject compounds were evaluated by measuring the expression levels of RAS G12V by a Cell ELISA method.
PA-TU-8902 cells (DSMZ, ACC 179) were seeded at 36 μL per well on a 384-well plate (from Greiner bio-one) to give 1.5×10^4 cells per well. As for the cell culture conditions, DMEM medium (from Sigma-Aldrich) containing 10% fetal bovine serum (from Cytiva) was used in the presence of 5% CO2 at 37° C.
The next day, the subject compounds (10 points having final concentrations in the range of 3 μM to 0.1 nM), Example compound 17 of a final concentration of 1 μM as a positive control and dimethyl sulfoxide (DMSO), which was the solvent for the subject compounds, as a negative control were diluted 100-fold with a fresh medium and were each added at 4 μL per well, followed by culturing for 24 hours.
The next day, the culture supernatant was removed, and a 4% paraformaldehyde phosphate buffer solution (from FUJIFILM Wako) was added at 20 μL per well. The plate was allowed to stand for 30 minutes at room temperature to thus immobilize the cells. Then, the supernatant was removed, and 0.1% Triton X-100 (from Amersham Biosciences)-containing Phosphate buffered saline (PBS) was added at 20 μL per well. After allowing the plate to stand at room temperature for 10 minutes, the supernatant was removed, and the wells were washed twice in total by adding PBS at 25 μL per well and removing the supernatant. The washing operations below were performed in the same manner. Next, the supernatant was removed, and 0.5% sodium dodecyl sulfate (SDS; from ThermoFisher Scientific)-containing PBS was added at 20 μL per well. After allowing the plate to stand at room temperature for 10 minutes, the plate was centrifuged to remove the supernatant. After washing with PBS, the supernatant was removed by centrifugation, and a blocking solution (PVDF Blocking Reagent for Can Get Signal; from TOYOBO) was added at 20 μL per well. After allowing the plate to stand for 30 minutes at room temperature, the supernatant was removed by centrifugation, and a solution obtained by diluting an anti-Ras (G12V Mutant Specific) antibody (Ras (G12V Mutant Specific) (D2H12) Rabbit mAb; from Cell Signaling Technology; 500-fold dilution) and an anti-3-actin antibody (Anti-beta Actin antibody; from Abcam; 5,000-fold dilution) with Can Get Signal Solution 2 (from TOYOBO) was added at 15 μL per well as primary antibodies. The plate was allowed to stand overnight at 4° C.
The next day, the supernatant was removed by centrifugation, and the plate was washed with PBS. The supernatant was removed by centrifugation, and a solution obtained by diluting an anti-rabbit IgG antibody (IRDye 800CW Goat anti-Rabbit IgG; from LI-COR Biosciences) and an anti-mouse IgG antibody (IRDye 680RD Donkey anti-Mouse IgG; from LI-COR Biosciences) 1,000-fold with Can Get Signal Solution 2 was added at 15 μL per well as secondary antibodies. After allowing the plate to stand at room temperature for an hour, the supernatant was removed by centrifugation, and the plate was washed with PBS. After removing the supernatant, the plate was dried as it was with air at room temperature for two hours or more, and the 700-nm and 800-nm fluorescent signals were measured with Aerius (from LI-COR Biosciences).
With the RAS G12V signaling value at the time of addition of DMSO corrected with the signaling value of 3-actin taken as 0% and with the RAS G12V signaling value at the time of addition of Example compound 17 of a final concentration of 1 μM taken as 100%, the RAS G12V degradation rates were calculated. The 50% degradation values (DC50) were calculated by Sigmoid-Emax model nonlinear regression analysis.

T1 sequence (P01116 1-188 isoform P01116-2 G12D): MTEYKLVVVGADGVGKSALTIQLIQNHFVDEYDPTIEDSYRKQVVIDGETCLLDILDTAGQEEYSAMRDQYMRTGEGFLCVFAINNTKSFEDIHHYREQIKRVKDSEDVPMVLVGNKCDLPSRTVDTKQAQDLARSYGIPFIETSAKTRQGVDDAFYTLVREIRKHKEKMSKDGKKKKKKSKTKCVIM
T2 sequence (P01116 1-188 isoform P01116-2 G12V): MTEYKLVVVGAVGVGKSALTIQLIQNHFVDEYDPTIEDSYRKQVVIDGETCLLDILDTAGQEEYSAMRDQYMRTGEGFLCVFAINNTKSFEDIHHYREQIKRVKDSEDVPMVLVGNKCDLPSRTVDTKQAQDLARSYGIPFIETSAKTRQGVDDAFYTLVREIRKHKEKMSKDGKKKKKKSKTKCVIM

Consider `CO[C@@H](C)COc1cc(OC2CN(C(=O)NCCN(C)C)C2)c2cc(C3CC3)c(-c3c(C)c(F)cc4[nH]ncc34)c(OCc3ccc(-c4cn([C@H](C(=O)N5C[C@H](O)C[C@H]5C(=O)N[C@@H](CO)c5ccc(-n6cncn6)cc5)C(C)C)nn4)cc3)c2n1` (atropisomer, axis not shown; (M)) [Example 12, (4R)-1-[(2S)-2-(4-{4-[({(7M)-6-cyclopropyl-4-[(1-{[2-(dimethylamino)ethyl]carbamoyl}azetidin-3-yl)oxy]-7-(6-fluoro-5-methyl-1H-indazol-4-yl)-2-[(2S)-2-methoxypropoxy]quinolin-8-yl}oxy)methyl]phenyl}-1H-1,2,3-triazol-1-yl)-3-methylbutanoyl]-4-hydroxy-N-{(1R)-2-hydroxy-1-[4-(1H-1,2,4-triazol-1-yl)phenyl]ethyl}-L-prolinamide], for which the values for the DC50 in test [1] and in test [2] were 3 nM and 37 nM, respectively.
On to `Cc1ncsc1-c1ccc([C@H](CO)NC(=O)[C@@H]2C[C@@H](O)CN2C(=O)[C@H](C(C)C)n2cc(-c3ccc(COc4c(-c5c(C)c(F)cc6[nH]ncc56)c(C5CC5)cc5c(NCc6cccnc6)nc(OC6CCOCC6)nc45)cc3)nn2)cc1` [Example 29], for which the DC50 in test [1] is 21 nM; in test [2], 8 nM.
As for `CO[C@@H](C)COc1nc(NC2CN(C(=O)O[C@H]3C[C@@H](N(C)C)C3)C2)c2cc(C3CC3)c(-c3c(C)c(F)cc4[nH]ncc34)c(OCc3ccc(-c4cn([C@H](C(=O)N5C[C@H](O)C[C@H]5C(=O)N[C@@H](CO)c5ccc(N6CCOC6=O)cc5)C(C)C)nn4)cc3)c2n1` (atropisomer, axis not shown) [Example 4], the DC50 in test [1] is 20 nM; in test [2] it was 45 nM.
The matching figures for `CO[C@@H](C)COc1nc(NC2CN(C(=O)N3CC(CN(C)C)C3)C2)c2cc(C3CC3)c(-c3c(C)c(F)cc4[nH]ncc34)c(OCc3ccc(-c4cn([C@H](C(=O)N5C[C@H](O)C[C@H]5C(=O)N[C@@H](CO)c5ccc(-c6scnc6C)cc5)C(C)C)nn4)cc3)c2n1` (atropisomer, axis not shown) [Example 25]: 3 nM and 14 nM.
The matching figures for `CO[C@@H](C)COc1cc(OC2CN(C(=O)CCCN(C)C)C2)c2cc(C3CC3)c(-c3c(C)c(F)cc4[nH]ncc34)c(OCc3ccc(-c4cn([C@H](C(=O)N5C[C@H](O)C[C@H]5C(=O)N[C@@H](CO)c5ccc(-n6cncn6)cc5)C(C)C)nn4)cc3)c2n1` (atropisomer, axis not shown; (M)) [Example 41, (4R)-1-[(2S)-2-(4-{4-[({(7M)-6-cyclopropyl-4-({1-[4-(dimethylamino)butanoyl]azetidin-3-yl}oxy)-7-(6-fluoro-5-methyl-1H-indazol-4-yl)-2-[(2S)-2-methoxypropoxy]quinolin-8-yl}oxy)methyl]phenyl}-1H-1,2,3-triazol-1-yl)-3-methylbutanoyl]-4-hydroxy-N-{(1R)-2-hydroxy-1-[4-(1H-1,2,4-triazol-1-yl)phenyl]ethyl}-L-prolinamide]: 3 nM and 30 nM.
`CO[C@@H](C)COc1nc(N2CC(C#N)C2)c2cc(C3CC3)c(-c3c(C)c(F)cc4[nH]ncc34)c(OCc3ccc(-c4cn([C@H](C(=O)N5C[C@H](O)C[C@H]5C(=O)N[C@@H](CO)c5ccc(-c6scnc6C)cc5)C(C)C)nn4)cc3)c2n1` (atropisomer, axis not shown) [Example 20]: the DC50 in test [1] amounted to 16 nM; in test [2] it was 48 nM.
On to `CO[C@@H](C)COc1nc(NC2CN(C(=S)N3CC(CN(C)C)C3)C2)c2cc(C3CC3)c(-c3c(C)c(F)cc4[nH]ncc34)c(OCc3ccc(-c4cn([C@H](C(=O)N5C[C@H](O)C[C@H]5C(=O)N[C@@H](CO)c5ccc(-n6cncn6)cc5)C(C)C)nn4)cc3)c2n1` (atropisomer, axis not shown) [Example 26], for which the DC50 in test [1] was 6 nM; in test [2], 19 nM.
For the compound `CO[C@@H](C)COc1cc(OC2CN(C(=O)O[C@H]3C[C@@H](N(C)C)C3)C2)c2cc(C3CC3)c(-c3c(C)c(F)cc4[nH]ncc34)c(OCc3ccc(-c4cn([C@H](C(=O)N5C[C@H](O)C[C@H]5C(=O)N[C@@H](CO)c5ccc(-n6cncn6)cc5)C(C)C)nn4)cc3)c2n1` (atropisomer, axis not shown; (M)) [Example 13, (1s,3R)-3-(dimethylamino)cyclobutyl 3-({(7M)-6-cyclopropyl-7-(6-fluoro-5-methyl-1H-indazol-4-yl)-8-{[4-(1-{(2S)-1-[(2S,4R)-4-hydroxy-2-({(1R)-2-hydroxy-1-[4-(1H-1,2,4-triazol-1-yl)phenyl]ethyl}carbamoyl)pyrrolidin-1-yl]-3-methyl-1-oxobutan-2-yl}-1H-1,2,3-triazol-4-yl)phenyl]methoxy}-2-[(2S)-2-methoxypropoxy]quinolin-4-yl}oxy)azetidine-1-carboxylate], the values for the DC50 in test [1] and in test [2] were 6 nM and 11 nM, respectively.
